The text below walks through data of patent US20260158002A1, “APPLICATION OF COMPOSITION CONTAINING EDARAVONE AND DEXBORNEOL IN IMPROVING OR TREATING COGNITIVE IMPAIRMENT” (NEURODAWN PHARMACEUTICAL CO., LTD., priority 2021, published 2026).

For assay [1], the system named is APP/PS1 transgenic mouse model. The note with it: cited from earlier work.
A further assay has as its system ICV-STZ model rats. Nature of the assay: Morris water maze test in rats of intracerebroventricular STZ-induced dementia. It is filed as in vivo, rat. To be noted: edaravone 6 mg/kg (plus dexborneol 0.8, 1.2 or 2.4 mg/kg), intraperitoneal, once daily. As to the method:
The experimental animals were divided into […]: sham surgery group, model group, edaravone group (6 mg/kg), edaravone and dexborneol (7.5:1) composition (edaravone 6 mg/kg, dexborneol 0.8 mg/kg), edaravone and dexborneol (5:1) composition (edaravone 6 mg/kg, dexborneol 1.2 mg/kg), and edaravone and dexborneol (2.5:1) composition (edaravone 6 mg/kg, dexborneol 2.4 mg/kg). The animals in the model group and sham surgery groups were given the corresponding volume of blank solvent (8% propylene glycol), all administrations were intraperitoneal injection administrations, and the administration volume is 10 ml/kg.
In addition to the sham surgery group, animals with successful surgery were randomly assigned to the model group and administration groups in order. […]
This trial lasted for 4 days. The platform was fixed in the target quadrant (SE quadrant) during the trial, water entry was performed from the water entry points of the four quadrants, respectively, animals were gently placed in the water facing the sign on the pool wall during training, the time (escape latency) for the animal to find the platform was recorded, and then the animal was allowed to stay on the platform for 10 s. […]

Assay [2] has as its system rat model of L-methionine-induced vascular dementia. To be noted: intraperitoneal 6 mg/kg/day for 9 consecutive weeks; cited from earlier work.

Regarding `CC1=NN(c2ccccc2)C(=O)C1` [edaravone, 3-methyl-1-phenyl-2-pyrazolin-5-one], the “deficits in the cognitive function in water maze test” value in assay [1] (APP/PS1 mice, 12.6 mg/kg intraperitoneal twice a week, prophylactic (3 to 9 months) and therapeutic (9 to 12 months)) is given as “can improve the deficits in the cognitive function in water maze test”. Also, the “cognitive function of aged transgenic mice” value in assay [1] (APP/PS aged mice (14 to 17 months), oral with drinking water 8, 24 and 72 mg/kg/day) is reported as “significantly improves the cognitive function of aged transgenic mice”. The “Aβ plaque deposition within the brain and cognitive function” value in assay [1] (mice aged 3-12 months, oral with drinking water 33.2 mg/kg/day) was “can also reduce Aβ plaque deposition within the brain and improve the cognitive function of mice”. In addition, in the assay on ICV-STZ model rats, the “escape latency in water maze hidden platform trial, vs model group” value is “could significantly shorten the escape latency” and the “residence time in the target quadrant in water maze space probe trial, vs model group” value was “significantly prolonged”. The “spatial learning and memory in eight-arm water maze test” value in assay [2] was “can significantly improve the spatial learning and memory of the model rats in eight-arm water maze test”.
